For 34 compounds, IC50 results are on record in patent US9012651B2, “TRPV3 modulators” (AbbVie Inc., priority 2011, dated 2015).

Sequence of human TRPV3 receptors (Q8NET8 whole entry): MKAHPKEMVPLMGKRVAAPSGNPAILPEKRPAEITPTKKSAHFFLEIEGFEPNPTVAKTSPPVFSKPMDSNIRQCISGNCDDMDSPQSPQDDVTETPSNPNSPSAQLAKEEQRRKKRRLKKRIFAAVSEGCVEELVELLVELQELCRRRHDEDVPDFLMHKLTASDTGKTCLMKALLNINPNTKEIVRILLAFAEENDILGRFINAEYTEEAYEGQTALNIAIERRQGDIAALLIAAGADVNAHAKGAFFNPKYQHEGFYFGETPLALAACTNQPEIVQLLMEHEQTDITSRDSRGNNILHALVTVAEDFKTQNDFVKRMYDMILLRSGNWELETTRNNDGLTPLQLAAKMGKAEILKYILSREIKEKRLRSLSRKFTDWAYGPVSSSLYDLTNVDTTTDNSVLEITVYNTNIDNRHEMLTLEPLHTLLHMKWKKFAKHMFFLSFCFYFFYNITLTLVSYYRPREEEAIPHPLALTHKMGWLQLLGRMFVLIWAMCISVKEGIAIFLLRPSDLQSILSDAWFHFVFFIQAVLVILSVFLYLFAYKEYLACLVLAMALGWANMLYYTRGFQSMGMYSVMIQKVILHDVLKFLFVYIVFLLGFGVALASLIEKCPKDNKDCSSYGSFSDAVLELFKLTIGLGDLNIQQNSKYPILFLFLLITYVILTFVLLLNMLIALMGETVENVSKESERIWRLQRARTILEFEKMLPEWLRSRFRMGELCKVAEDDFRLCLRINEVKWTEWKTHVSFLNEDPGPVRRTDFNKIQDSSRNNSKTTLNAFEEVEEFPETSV

This assay has as its target human TRPV3 receptors (Homo sapiens (Human), UniProt Q8NET8). The experiment in a line: Calcium flux assay (FLIPR TETRA), inhibition of the 2-APB response. It counts as cell-based. Conditions: recombinant HEK293 cells stably expressing TRPV3, Calcium-4 dye, 2-APB at its EC80. As to the method:
(i) In Vitro Methods-Calcium Flux Assays:
Experiments were conducted using the FLIPR^TETRA®. On the day prior to the experiment, recombinant HEK293 cells that stably express human and mouse TRPV3 were removed from tissue culture flasks and plated in growth medium at 20,000 cells/well into black-walled clear-bottom 384-well Biocoat™ poly-D-lysine assay plates (BD Biosciences, Bedford, Mass.) using a Multidrop® dispenser (ThermoScientific, Waltham, Mass.). […] Cells were incubated for 90-120 minutes in the dark. Compounds were dissolved in DMSO to prepare a 10 mM stock solution. The intensity of the fluorescence was captured and digitally transferred to an interfaced PC. The peak increase in fluorescence over baseline (relative fluorescence units) was calculated and expressed as the percentage of the maximal 2-APB (2-aminoethoxyldiphenyl borate) response (in the absence of compound).
Broadly, the IC50 is the concentration that gives 50% inhibition. In the case of `CC(C)[C@H](CO)NCc1nc(-c2cccc(C(=O)N3CCCCC3)c2)ccc1F` [Example 45, {3-[5-fluoro-6-({[(2R)-1-hydroxy-3-methylbutan-2-yl]amino}methyl)pyridin-2-yl]phenyl}(piperidin-1-yl)methanone], the IC50 worked out at 3470 nM. With `CC1CCN(C(=O)c2cccc(-c3ccc(F)c(CN[C@@H](CO)C(C)C)n3)c2)CC1` [Example 46, {3-[5-fluoro-6-({[(2R)-1-hydroxy-3-methylbutan-2-yl]amino}methyl)pyridin-2-yl]phenyl}(4-methylpiperidin-1-yl)methanone], the IC50 was 2020 nM. Then `CC(C)[C@H](CO)NCc1nc(-c2ccc(C(F)(F)F)c(Cl)c2)ccc1F` [Example 47, (2R)-2-[({6-[3-chloro-4-(trifluoromethyl)phenyl]-3-fluoropyridin-2-yl}methyl)amino]-3-methylbutan-1-ol], with 290 nM.

Turning to `CC(C)[C@H](CO)NCc1nc(-c2cccc(S(=O)(=O)N3CCCCC3)c2)ccc1F` [Example 48, (2R)-2-[({3-fluoro-6-[3-(piperidin-1-ylsulfonyl)phenyl]pyridin-2-yl}methyl)amino]-3-methylbutan-1-ol], the IC50 worked out at 330 nM.

Consider `CC(C)[C@H](CO)NCc1nc(-c2cccc(N3CCCC3)c2)ccc1F` [Example 49, (2R)-2-[({3-fluoro-6-[3-(pyrrolidin-1-yl)phenyl]pyridin-2-yl}methyl)amino]-3-methylbutan-1-ol], for which the half-inhibitory concentration (IC50) turned out to be 480 nM.

Consider `Cc1ccc(S(=O)(=O)N(C)C)cc1-c1ccc(F)c(CN[C@@H](CO)C(C)C)n1` [Example 50, 3-[5-fluoro-6-({[(2R)-1-hydroxy-3-methylbutan-2-yl]amino}methyl)pyridin-2-yl]-N,N,4-trimethylbenzenesulfonamide], for which the IC50 was 1770 nM. Turning to `CCN(CC)S(=O)(=O)c1cccc(-c2ccc(F)c(CN[C@@H](CO)C(C)C)n2)c1` [Example 51, N,N-diethyl-3-[5-fluoro-6-({[(2R)-1-hydroxy-3-methylbutan-2-yl]amino}methyl)pyridin-2-yl]benzenesulfonamide], the IC50 came out at 500 nM. `CC(C)[C@H](CO)NCc1nc(-c2cccc(C(=O)N(C)C3CCCCC3)c2)ccc1F` [Example 52, N-cyclohexyl-3-[5-fluoro-6-({[(2R)-1-hydroxy-3-methylbutan-2-yl]amino}methyl)pyridin-2-yl]-N-methylbenzamide]: the IC50 worked out at 1420 nM. Regarding `CC(C)[C@H](CO)NCc1nc(-c2ccc(OCC(F)(F)F)cc2)ccc1F` [Example 53, (2R)-2-[({3-fluoro-6-[4-(2,2,2-trifluoroethoxy)phenyl]pyridin-2-yl}methyl)amino]-3-methylbutan-1-ol], the IC50 worked out at 460 nM.

As for `CC(C)[C@H](CO)NCc1nc(-c2cccc(S(=O)(=O)N3CCOCC3)c2)ccc1F` [Example 54, (2R)-2-[({3-fluoro-6-[3-(morpholin-4-ylsulfonyl)phenyl]pyridin-2-yl}methyl)amino]-3-methylbutan-1-ol], the IC50 was 760 nM.

In the case of `CC(C)[C@H](CO)NCc1nc(-c2ccnc(N3CCOCC3)c2)ccc1F` [Example 55, (2R)-2-({[5-fluoro-2′-(morpholin-4-yl)-2,4′-bipyridin-6-yl]methyl}amino)-3-methylbutan-1-ol], the IC50 stood at 2160 nM. In the case of `CC(C)[C@H](CO)NCc1nc(-c2cccc(C(=O)N(C(C)C)C(C)C)c2)ccc1F` [Example 56, 3-[5-fluoro-6-({[(2R)-1-hydroxy-3-methylbutan-2-yl]amino}methyl)pyridin-2-yl]-N,N-diisopropylbenzamide], the IC50 worked out at 1780 nM. Take `CC(C)Oc1ccc(-c2ccc(F)c(CN[C@@H](CO)C(C)C)n2)cn1` [Example 57, (2R)-2-({[5-fluoro-6′-(propan-2-yloxy)-2,3′-bipyridin-6-yl]methyl}amino)-3-methylbutan-1-ol]: the IC50 amounted to 500 nM. For `CC(C)[C@H](CO)NCc1nc(-c2cccc(C(=O)N(C)Cc3ccccc3)c2)ccc1F` [Example 58, N-benzyl-3-[5-fluoro-6-({[(2R)-1-hydroxy-3-methylbutan-2-yl]amino}methyl)pyridin-2-yl]-N-methylbenzamide], the IC50 came out at 1490 nM. As to `Cc1ccc(S(=O)(=O)C(F)(F)F)cc1-c1ccc(F)c(CN[C@@H](CO)C(C)C)n1` [Example 59, (2R)-2-{[(3-fluoro-6-{2-methyl-5-[(trifluoromethyl)sulfonyl]phenyl}pyridin-2-yl)methyl]amino}-3-methylbutan-1-ol], the IC50 stood at 630 nM. Then `CC(C)[C@H](CO)NCc1nc(-c2cccc(S(=O)(=O)N3CCCC3)c2)ccc1F` [Example 60, (2R)-2-[({3-fluoro-6-[3-(pyrrolidin-1-ylsulfonyl)phenyl]pyridin-2-yl}methyl)amino]-3-methylbutan-1-ol], with 1080 nM. Turning to `CC(C)[C@H](CO)NCc1nc(-c2cccc(S(=O)(=O)N(C)C(C)(C)C)c2)ccc1F` [Example 61, N-tert-butyl-3-[5-fluoro-6-({[(2R)-1-hydroxy-3-methylbutan-2-yl]amino}methyl)pyridin-2-yl]-N-methylbenzenesulfonamide], the IC50 was 190 nM. For the compound `CC(C)[C@H](CO)NCc1nc(-c2cccc(C(=O)N3CCSCC3)c2)ccc1F` [Example 62, {3-[5-fluoro-6-({[(2R)-1-hydroxy-3-methylbutan-2-yl]amino}methyl)pyridin-2-yl]phenyl}(thiomorpholin-4-yl)methanone], the IC50 came out at 4000 nM. As to `CC(C)[C@H](CO)NCc1nc(-c2cccc3c2ccn3C)ccc1F` [Example 63, (2R)-2-({[3-fluoro-6-(1-methyl-1H-indol-4-yl)pyridin-2-yl]methyl}amino)-3-methylbutan-1-ol], the IC50 came to 1740 nM. Turning to `CC(C)[C@H](CO)NCc1nc(-c2ccc3ccn(C)c3c2)ccc1F` [Example 64, (2R)-2-({[3-fluoro-6-(1-methyl-1H-indol-6-yl)pyridin-2-yl]methyl}amino)-3-methylbutan-1-ol], the IC50 was 480 nM. On to `CC(C)[C@H](CO)NCc1nc(N2CCCC(C(F)(F)F)C2)ccc1F` (stereo partly drawn) [Example 65, (2R)-2-[({3-fluoro-6-[3-(trifluoromethyl)piperidin-1-yl]pyridin-2-yl}methyl)amino]-3-methylbutan-1-ol], for which the IC50 was 320 nM. Turning to `CC(C)[C@H](CO)NCc1nc(N2CCC(C(F)(F)F)CC2)ccc1F` [Example 66, (2R)-2-[({3-fluoro-6-[4-(trifluoromethyl)piperidin-1-yl]pyridin-2-yl}methyl)amino]-3-methylbutan-1-ol], the half-inhibitory concentration (IC50) came out at 220 nM.

Consider `CC(C)[C@H](CO)NCc1nc(N2CCC(C(F)(F)F)C2)ccc1F` (stereo partly drawn) [Example 67, (2R)-2-[({3-fluoro-6-[3-(trifluoromethyl)pyrrolidin-1-yl]pyridin-2-yl}methyl)amino]-3-methylbutan-1-ol], for which the IC50 was determined as 420 nM.

As for `CC(C)[C@H](CO)NCc1nc(-c2ccc(OCC(F)(F)F)nc2)ccc1F` [Example 68, (2R)-2-({[5-fluoro-6′-(2,2,2-trifluoroethoxy)-2,3′-bipyridin-6-yl]methyl}amino)-3-methylbutan-1-ol], the IC50 came to 590 nM. Regarding `CC(C)[C@H](CO)NCc1cccc(-c2ccc(C(F)(F)F)nc2)n1` [Example 69, (2R)-3-methyl-2-({[6′-(trifluoromethyl)-2,3′-bipyridin-6-yl]methyl}amino)butan-1-ol], the IC50 came out at 3720 nM. Turning to `CC(C)[C@H](CO)NCc1nc(N2CCc3ccccc3C2)ccc1F` [Example 70, (2R)-2-({[6-(3,4-dihydroisoquinolin-2(1H)-yl)-3-fluoropyridin-2-yl]methyl}amino)-3-methylbutan-1-ol], the IC50 worked out at 180 nM. Regarding `CC(C)[C@H](CO)NCc1nc(N2Cc3ccccc3C2)ccc1F` [Example 71, (2R)-2-({[6-[1,3-dihydro-2H-isoindol-2-yl)-3-fluoropyridin-2-yl]methyl}amino)-3-methylbutan-1-ol], the IC50 turned out to be 160 nM. As for `CC(C)[C@H](CO)NCc1nc(-c2ccc(C(F)(F)F)cn2)ccc1F` [Example 73, (2R)-2-({[5-fluoro-5′-(trifluoromethyl)-2,2′-bipyridin-6-yl]methyl}amino)-3-methylbutan-1-ol], the IC50 amounted to 140 nM. As to `COCC(CO)NCc1nc(-c2ccc(C(F)(F)F)cc2)ccc1F` (stereo not shown) [Example 74, 2-[({3-fluoro-6-[4-(trifluoromethyl)phenyl]pyridin-2-yl}methyl)amino]-3-methoxypropan-1-ol], the IC50 worked out at 3680 nM. For `OC[C@H](NCc1nc(-c2ccc(C(F)(F)F)nc2)ccc1F)C1CC1` [Example 75, (2R)-2-cyclopropyl-2-({[5-fluoro-6′-(trifluoromethyl)-2,3′-bipyridin-6-yl]methyl}amino)ethanol], the IC50 turned out to be 3020 nM. The same measure for `OC[C@H](NCc1nc(-c2ccc(OCC(F)(F)F)nc2)ccc1F)C1CC1` [Example 76, (2R)-2-cyclopropyl-2-({[5-fluoro-6′-(2,2,2-trifluoroethoxy)-2,3′-bipyridin-6-yl]methyl}amino)ethanol]: 1600 nM; for `CC[C@H](CO)NCc1nc(-c2ccc(C(F)(F)F)cc2)ccc1F` [Example 77, (2R)-2-[({3-fluoro-6-[4-(trifluoromethyl)phenyl]pyridin-2-yl}methyl)amino]butan-1-ol]: 540 nM; for `CC[C@H](CO)NCc1nc(-c2ccc(C(F)(F)F)nc2)ccc1F` [Example 78, (2R)-2-({[5-fluoro-6′-(trifluoromethyl)-2,3′-bipyridin-6-yl]methyl}amino)butan-1-ol]: 10200 nM.

As to `OCC1(NCc2nc(-c3ccc(C(F)(F)F)cc3)ccc2F)CCC1` [Example 79, {1-[({3-fluoro-6-[4-(trifluoromethyl)phenyl]pyridin-2-yl}methyl)amino]cyclobutyl}methanol], the IC50 turned out to be 700 nM.
